# Measured values: patent publication US6545182B2, “Methods and compositions for modulating alpha adrenergic receptor activity” (Allergan Sales, Inc., priority 2000, dated 2003)
# Experiments:
# Format in all cases: cell-based
# [1] = biological target: T1, alpha 2A adrenergic receptor (Homo sapiens, UniProt P08913); experiment: RSAT (Receptor Selection and Amplification Technology) assay, alpha 2A; conditions: for EC50: NIH-3T3 cells cotransfected with receptor and Gq/i5
# T1 construct: expressed in transfected cells; host or cells: NIH-3T3 cells, transient cotransfection by calcium phosphate
# T1 sequence (P08913 1-465): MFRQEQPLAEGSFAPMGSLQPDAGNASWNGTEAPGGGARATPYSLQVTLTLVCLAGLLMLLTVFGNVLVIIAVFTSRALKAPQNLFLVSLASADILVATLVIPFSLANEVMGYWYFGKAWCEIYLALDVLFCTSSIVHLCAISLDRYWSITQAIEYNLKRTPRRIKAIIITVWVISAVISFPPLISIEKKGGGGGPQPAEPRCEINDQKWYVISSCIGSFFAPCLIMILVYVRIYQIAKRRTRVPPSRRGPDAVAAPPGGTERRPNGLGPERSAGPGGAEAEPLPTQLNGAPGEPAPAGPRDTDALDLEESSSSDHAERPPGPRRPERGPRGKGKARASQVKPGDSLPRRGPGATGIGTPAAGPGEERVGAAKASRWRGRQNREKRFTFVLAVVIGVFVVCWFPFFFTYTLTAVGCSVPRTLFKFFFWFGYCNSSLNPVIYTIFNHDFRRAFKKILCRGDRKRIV
# Protocol: (§1) Activity was measured using the RSAT (Receptor Selection and Amplification Technology) assay, developed by Receptor Technologies, Inc. of Winooski, Vt. (now Acadia Pharmaceuticals of San Diego, Calif.), adapted for use with recombinant alpha2 adrenergic receptors in collaboration with Allergan. The assay measures receptor-mediated loss of contact inhibition that results in selective proliferation of receptor-containing cells in a mixed population of confluent cells. The increase in cell number is assessed with an appropriate transfected marker gene such as β-galactosidase, the activity of which can be easily measured in a 96-well format. Receptors that activate the G protein, Gq, elicit this response. Alpha2 receptors, which normally couple to Gi, activate the RSAT response when coexpressed with a hybrid Gq protein that has a Gi receptor recognition domain, called Gq/i5.
# (§2) The assay is conducted as follows. NIH-3T3 cells are plated at a density of 2×10^6 cells in 15 cm dishes and maintained in Dulbecco's modified Eagle's medium supplemented with 10% calf serum. One day later, cells are cotransfected by calcium phosphate precipitation with mammalian expression plasmids encoding p-SV-β-galactosidase (5-10 μg), receptor (1-2 μg) and G protein (1-2 μg). 40 μg salmon sperm DNA may also be included in the transfection mixture to increase transfection efficiency. Fresh media is added on the following day and 1-2 days later, cells are harvested and frozen in 50 assay aliquots. Transfectant cells are thawed and 100 μl added to 100 μl aliquots of various concentrations of drugs in triplicate in 96-well dishes. Incubations continue 72-96 hr at 37°. After washing with phosphate-buffered saline, β-galactosidase enzyme activity is determined by adding 200 μl of the chromogenic substrate (consisting of 3.5 mM o-nitrophenyl-β-D-galactopyranoside and 0.5% of the non-ionic surfactant nonidet P-40 in phosphate buffered saline), incubating overnight at 30° and measuring optical density at 420 nm. The absorbency is a measure of enzyme activity, which depends on cell number and reflects a receptor-mediated cell proliferation. The EC50 and maximal effect of each drug at each alpha2 receptor is determined. The efficacy or intrinsic activity is calculated as a ratio of the maximal effect of the drug to the maximal effect of a standard full agonist for each receptor subtype. Brimonidine, also called UK14304, is used as the standard agonist for the alpha2A, alpha2B and alpha2C receptors. The RSAT assay is also discussed in Messier et al. (1995) High throughput assays of cloned adrenergic, muscarinic, neurokinin and neurotrophin receptors in living mammalian cells, Pharmacol. Toxicol. 76:308-11; see also Conklin et al. (1993) Substitution of three amino acids switches receptor specificity of Gqα to that of Giα, Nature 363:274-6; Both of these papers are incorporated by reference herein.
# [2] = biological target: T2, alpha 2B adrenergic receptor (Homo sapiens, UniProt P18089); experiment: RSAT (Receptor Selection and Amplification Technology) assay, alpha 2B; conditions: for EC50: NIH-3T3 cells cotransfected with receptor and Gq/i5; for efficacy or intrinsic activity (value in parentheses) Alpha 2B: ratio of maximal effect to that of standard full agonist brimonidine
# T2 construct: expressed in transfected cells; host or cells: NIH-3T3 cells, transient cotransfection by calcium phosphate
# T2 sequence (P18089 1-450): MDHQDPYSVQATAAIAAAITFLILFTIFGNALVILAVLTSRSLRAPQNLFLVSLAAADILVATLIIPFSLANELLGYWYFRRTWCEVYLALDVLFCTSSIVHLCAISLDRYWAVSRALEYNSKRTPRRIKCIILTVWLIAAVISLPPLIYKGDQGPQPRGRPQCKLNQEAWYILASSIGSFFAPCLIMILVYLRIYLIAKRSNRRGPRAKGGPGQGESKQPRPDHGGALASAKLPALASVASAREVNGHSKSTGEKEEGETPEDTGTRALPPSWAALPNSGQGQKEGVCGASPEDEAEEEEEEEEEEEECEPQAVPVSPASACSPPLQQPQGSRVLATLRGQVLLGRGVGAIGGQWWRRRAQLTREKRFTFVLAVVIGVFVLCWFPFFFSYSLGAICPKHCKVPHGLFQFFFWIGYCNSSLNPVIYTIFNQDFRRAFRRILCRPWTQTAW
# Protocol: as §1, §2
# [3] = biological target: T3, alpha 2C adrenergic receptor (Homo sapiens, UniProt P18825); experiment: RSAT (Receptor Selection and Amplification Technology) assay, alpha 2C; conditions: for EC50: NIH-3T3 cells cotransfected with receptor and Gq/i5; for efficacy or intrinsic activity (value in parentheses) Alpha 2C: ratio of maximal effect to that of standard full agonist brimonidine
# T3 construct: expressed in transfected cells; host or cells: NIH-3T3 cells, transient cotransfection by calcium phosphate
# T3 sequence (P18825 1-462): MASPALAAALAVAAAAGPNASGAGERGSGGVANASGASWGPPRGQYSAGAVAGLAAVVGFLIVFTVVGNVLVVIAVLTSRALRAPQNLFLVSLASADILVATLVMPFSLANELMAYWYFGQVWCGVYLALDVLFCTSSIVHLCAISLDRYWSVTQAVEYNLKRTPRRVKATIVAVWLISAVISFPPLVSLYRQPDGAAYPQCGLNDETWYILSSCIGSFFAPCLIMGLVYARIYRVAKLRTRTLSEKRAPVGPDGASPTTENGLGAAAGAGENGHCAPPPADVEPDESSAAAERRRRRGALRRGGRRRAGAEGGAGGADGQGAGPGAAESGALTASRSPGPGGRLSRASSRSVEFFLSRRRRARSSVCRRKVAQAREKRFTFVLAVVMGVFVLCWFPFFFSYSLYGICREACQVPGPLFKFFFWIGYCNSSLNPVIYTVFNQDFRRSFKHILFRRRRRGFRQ
# Protocol: as §1, §2
Compound,EC50 [1],EC50 [2],efficacy or intrinsic activity (value in parentheses) Alpha 2B [2],EC50 [3],efficacy or intrinsic activity (value in parentheses) Alpha 2C [3],efficacy or intrinsic activity (value in parentheses) Alpha 2A ([1]; ratio of maximal effect to that of standard full agonist brimonidine)
OCCNC(=S)NCc1c(F)cccc1I,≥ 210000 nM,141 nM,1.08,> 2000 nM,–,–
OCCNC(=S)NCc1cc(F)ccc1O,≥ 210000 nM,27 nM,1.20,144 nM,0.74,–
OCCNC(=S)NCc1c(F)cc(F)c(F)c1F,≥ 210000 nM,2050 nM,0.89,≥ 210000 nM,–,–
OCCNC(=S)NCc1c(F)c(F)cc(F)c1F,≥ 210000 nM,243 nM,0.9,2370 nM,0.51,–
Cc1cccc(CNC(=S)NCCO)c1,≥ 210000 nM,913 nM,0.9,602 nM,0.3,–
OCCNC(=S)NCc1cc(Cl)cc(Cl)c1F,≥ 210000 nM,118 nM,0.92,–,–,–
OCCNC(=S)NCc1ccc(F)c(F)c1F,≥ 210000 nM,482 nM,0.76,≥ 210000 nM,–,–
COc1ccc(F)c(CNC(=S)NCCO)c1,≥ 210000 nM,282 nM,0.91,–,–,–
OCCNC(=S)NCc1cc(Br)ccc1Cl,≥ 210000 nM,50 nM,0.78,–,–,–
Cc1ccc(F)c(CNC(=S)NCCO)c1,≥ 210000 nM,95 nM,0.91,–,–,–
OCCNC(=S)NCc1c(F)ccc(Br)c1F,≥ 210000 nM,205 nM,0.81,–,–,–
OCCNC(=S)NCc1cc(Cl)ccc1Br,≥ 210000 nM,25 nM,0.82,–,–,–
OCCNC(=S)NCc1cccc(C(F)(F)F)c1Cl,≥ 210000 nM,33 nM,1.1,–,–,–

# More lines, now with the values ahead:
EC50 [1],EC50 [2],efficacy or intrinsic activity (value in parentheses) Alpha 2B [2],EC50 [3],efficacy or intrinsic activity (value in parentheses) Alpha 2C [3],efficacy or intrinsic activity (value in parentheses) Alpha 2A ([1]; ratio of maximal effect to that of standard full agonist brimonidine),Compound
≥ 210000 nM,10 nM,0.8,273 nM,0.4,–,OCCNC(=S)NCc1ccccc1Br
≥ 210000 nM,174 nM,0.55,≥ 210000 nM,–,–,OCCNC(=S)NCc1c(F)cccc1Cl
≥ 210000 nM,89 nM,0.92,1420 nM,0.78,–,OCCNC(=S)NCc1c(Cl)ccc(Cl)c1F
≥ 210000 nM,271 nM,0.48,–,–,–,OCCNC(=S)NCc1cc(F)c(F)cc1F
63 nM,30 nM,1.16,232 nM,0.58,0.42,OCCNC(=S)NCc1cccc(I)c1
≥ 210000 nM,13 nM,0.85,53 nM,0.51,–,OCCNC(=S)NCc1cc(F)ccc1F
≥ 210000 nM,169 nM,0.95,843 nM,0.38,–,COc1c(F)cccc1CNC(=S)NCCO
≥ 210000 nM,30 nM,0.75,238 nM,0.34,–,OCCNC(=S)NCc1c(F)ccc(Cl)c1Cl
≥ 210000 nM,98 nM,0.83,> 2000 nM,–,–,OCCNC(=S)NCc1c(F)ccc(Cl)c1F
≥ 210000 nM,116 nM,1.23,1410 nM,0.58,–,OCCNC(=S)NCc1cc(Br)cc(Br)c1F
≥ 210000 nM,235 nM,0.92,406 nM,0.43,–,COc1cccc(F)c1CNC(=S)NCCO
≥ 210000 nM,59 nM,0.6,1810 nM,0.4,–,Cc1ccc(CNC(=S)NCCO)cc1
≥ 210000 nM,37 nM,0.7,632 nM,0.3,–,OCCNC(=S)NCc1cccc(C(F)(F)F)c1F
≥ 210000 nM,495 nM,0.73,≥ 210000 nM,–,–,OCCNC(=S)NCc1cccc(C(F)(F)F)c1
≥ 210000 nM,181 nM,0.95,> 2000 nM,–,–,Cc1ccc(Br)c(F)c1CNC(=S)NCCO
≥ 210000 nM,3 nM,0.99,54.5 nM,0.33,–,OCCNC(=S)NCc1cccc(Cl)c1Cl
> 2000 nM,429 nM,1.04,> 3000 nM,–,–,COc1cccc(CNC(=S)NCCO)c1F
≥ 210000 nM,42 nM,0.7,28 nM,0.4,–,CCOc1ccccc1CNC(=S)NCCO
≥ 210000 nM,20 nM,1.0,137 nM,0.63,–,OCCNC(=S)NCc1cc(F)ccc1Br
